Measured values published in PubChem BioAssay (NCI).
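Results reflect a 48-hour exposure of cells in 96-well plates to compound at five concentrations. TGI is the concentration that stops growth completely.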

Assays:
Experiment in all cases: inhibition of tumour cell growth, NCI panel, 48 h
786-0 renal = test system: 786-0 renal
A498 renal = test system: A498 renal
A549 NSCLC = test system: A549 NSCLC
ACHN renal = test system: ACHN renal
CAKI-1 renal = test system: CAKI-1 renal
CCRF-CEM leukemia = test system: CCRF-CEM leukemia
DLD-1 colon = test system: DLD-1 colon
DMS 114 small cell lung = test system: DMS 114 small cell lung
DMS 273 small cell lung = test system: DMS 273 small cell lung
EKVX NSCLC = test system: EKVX NSCLC
HCC-2998 colon = test system: HCC-2998 colon
HCT-116 colon = test system: HCT-116 colon
HCT-15 colon = test system: HCT-15 colon
HL-60(TB) leukemia = test system: HL-60(TB) leukemia
HOP-18 NSCLC = test system: HOP-18 NSCLC
HOP-62 NSCLC = test system: HOP-62 NSCLC
HOP-92 NSCLC = test system: HOP-92 NSCLC
HT29 colon = test system: HT29 colon
IGROV1 ovarian = test system: IGROV1 ovarian
K-562 leukemia = test system: K-562 leukemia
KM12 colon = test system: KM12 colon
KM20L2 colon = test system: KM20L2 colon
LOX IMVI melanoma = test system: LOX IMVI melanoma
LXFL 529 NSCLC = test system: LXFL 529 NSCLC
M14 melanoma = test system: M14 melanoma
M19-MEL melanoma = test system: M19-MEL melanoma
MALME-3M melanoma = test system: MALME-3M melanoma
MOLT-4 leukemia = test system: MOLT-4 leukemia
NCI-H226 lung = test system: NCI-H226 lung
NCI-H23 lung = test system: NCI-H23 lung
NCI-H460 lung = test system: NCI-H460 lung
NCI-H522 lung = test system: NCI-H522 lung
OVCAR-3 ovarian = test system: OVCAR-3 ovarian
OVCAR-4 ovarian = test system: OVCAR-4 ovarian
OVCAR-5 ovarian = test system: OVCAR-5 ovarian
OVCAR-8 ovarian = test system: OVCAR-8 ovarian
RPMI-8226 leukemia = test system: RPMI-8226 leukemia
RXF 393 renal = test system: RXF 393 renal
SF-268 CNS = test system: SF-268 CNS
SF-295 CNS = test system: SF-295 CNS
SF-539 CNS = test system: SF-539 CNS
SK-MEL-2 melanoma = test system: SK-MEL-2 melanoma
SK-MEL-28 melanoma = test system: SK-MEL-28 melanoma
SK-MEL-5 melanoma = test system: SK-MEL-5 melanoma
SK-OV-3 ovarian = test system: SK-OV-3 ovarian
SN12C renal = test system: SN12C renal
SNB-19 CNS = test system: SNB-19 CNS
SNB-75 CNS = test system: SNB-75 CNS
SNB-78 CNS = test system: SNB-78 CNS
SR leukemia = test system: SR leukemia
SW-620 colon = test system: SW-620 colon
TK-10 renal = test system: TK-10 renal
U251 CNS = test system: U251 CNS
UACC-257 melanoma = test system: UACC-257 melanoma
UACC-62 melanoma = test system: UACC-62 melanoma
UO-31 renal = test system: UO-31 renal
XF 498 CNS = test system: XF 498 CNS

## COc1cc2c[n+](C)c3c4cc(OC)c(OC)cc4c(OCCCCCCCCOc4cc5c6cc(OC)c(OC)cc6c[n+](C)c5c5cc(OC)c(OC)cc45)cc3c2cc1OC
786-0 renal
  TGI: > 100 µM
A498 renal
  TGI: > 100 µM
A549 NSCLC
  TGI: > 100 µM
ACHN renal
  TGI: > 100 µM
CAKI-1 renal
  TGI: > 100 µM
CCRF-CEM leukemia
  TGI: > 100 µM
DLD-1 colon
  TGI: > 100 µM
DMS 114 small cell lung
  TGI: > 100 µM
DMS 273 small cell lung
  TGI: > 100 µM
EKVX NSCLC
  TGI: > 100 µM
HCC-2998 colon
  TGI: > 100 µM
HCT-116 colon
  TGI: > 100 µM
HCT-15 colon
  TGI: > 100 µM
HL-60(TB) leukemia
  TGI: > 100 µM
HOP-18 NSCLC
  TGI: > 100 µM
HOP-62 NSCLC
  TGI: > 100 µM
HOP-92 NSCLC
  TGI: > 100 µM
HT29 colon
  TGI: > 100 µM
IGROV1 ovarian
  TGI: > 100 µM
K-562 leukemia
  TGI: > 100 µM
KM12 colon
  TGI: > 100 µM
KM20L2 colon
  TGI: > 100 µM
LOX IMVI melanoma
  TGI: > 100 µM
LXFL 529 NSCLC
  TGI: > 100 µM
M14 melanoma
  TGI: > 100 µM
M19-MEL melanoma
  TGI: > 100 µM
MALME-3M melanoma
  TGI: > 100 µM
MOLT-4 leukemia
  TGI: > 100 µM
NCI-H226 lung
  TGI: > 100 µM
NCI-H23 lung
  TGI: > 100 µM
NCI-H460 lung
  TGI: > 100 µM
NCI-H522 lung
  TGI: > 100 µM
OVCAR-3 ovarian
  TGI: > 100 µM
OVCAR-4 ovarian
  TGI: > 100 µM
OVCAR-5 ovarian
  TGI: > 100 µM
OVCAR-8 ovarian
  TGI: > 100 µM
RPMI-8226 leukemia
  TGI: > 100 µM
RXF 393 renal
  TGI: > 100 µM
SF-268 CNS
  TGI: > 100 µM
SF-295 CNS
  TGI: > 100 µM
SF-539 CNS
  TGI: > 100 µM
SK-MEL-2 melanoma
  TGI: > 100 µM
SK-MEL-28 melanoma
  TGI: > 100 µM
SK-MEL-5 melanoma
  TGI: > 100 µM
SK-OV-3 ovarian
  TGI: > 100 µM
SN12C renal
  TGI: > 100 µM
SNB-19 CNS
  TGI: 66.3 µM
SNB-75 CNS
  TGI: > 100 µM
SNB-78 CNS
  TGI: > 100 µM
SR leukemia
  TGI: > 100 µM
SW-620 colon
  TGI: > 100 µM
TK-10 renal
  TGI: > 100 µM
U251 CNS
  TGI: > 100 µM
UACC-257 melanoma
  TGI: > 100 µM
UACC-62 melanoma
  TGI: > 100 µM
UO-31 renal
  TGI: > 100 µM
XF 498 CNS
  TGI: > 100 µM
